≈ marks a conversion by molar mass, not a printed value.
Assays:
Format in all cases: functional
Haemophilus influenzae [1] = experiment: Antimicrobial activity against beta-lactamase negative ampicillin-susceptible Haemophilus influenzae by E-test
Haemophilus influenzae [2] = experiment: Antimicrobial activity against beta-lactamase positive ampicillin-resistant Haemophilus influenzae by broth microdilution method
Haemophilus influenzae [3] = experiment: Antimicrobial activity against beta-lactamase negative ampicillin-resistant Haemophilus influenzae by broth microdilution method
Haemophilus influenzae [4] = experiment: Antimicrobial activity against beta-lactamase negative ampicillin-resistant Haemophilus influenzae by E-test
Haemophilus influenzae [5] = experiment: Antimicrobial activity against beta-lactamase positive amoxicillin/clavulanate-resistant Haemophilus influenzae by E-test
Haemophilus influenzae [6] = experiment: Antimicrobial activity against beta-lactamase negative ampicillin-susceptible Haemophilus influenzae by broth microdilution method
Haemophilus influenzae [7] = experiment: Antimicrobial activity against beta-lactamase positive ampicillin-resistant Haemophilus influenzae by E-test
Haemophilus influenzae [8] = experiment: Antimicrobial activity against beta-lactamase positive amoxicillin/clavulanate-resistant Haemophilus influenzae by broth microdilution method
Haemophilus influenzae [9] = experiment: Antimicrobial activity against Haemophilus influenzae expressing mutant ftsI gene

| Compound | MIC (Haemophilus influenzae [1]) | MIC (Haemophilus influenzae [2]) | MIC (Haemophilus influenzae [3]) | MIC (Haemophilus influenzae [4]) | MIC (Haemophilus influenzae [5]) | MIC (Haemophilus influenzae [6]) | MIC (Haemophilus influenzae [7]) | MIC (Haemophilus influenzae [8]) | MIC (Haemophilus influenzae [9]) |
| --- | --- | --- | --- | --- | --- | --- | --- | --- | --- |
| CC1(C)S[C@@H]2[C@H](NC(=O)[C@H](N)c3ccccc3)C(=O)N2[C@H]1C(=O)O [AMPICILLIN] | 0.25 µg/mL (≈ 0.715 µM) | 32 µg/mL (≈ 91.6 µM) | 1 µg/mL (≈ 2.86 µM) | 1 µg/mL (≈ 2.86 µM) | 256 µg/mL | 0.25 µg/mL (≈ 0.715 µM) | 4 µg/mL (≈ 11.4 µM) | 256 µg/mL | – |
| N[C@@H](C(=O)N[C@@H]1C(=O)N2C(C(=O)O)=C(Cl)CS[C@H]12)c1ccccc1 [CEFACLOR ANHYDROUS] | – | – | – | – | – | – | – | – | 4 µg/mL (≈ 10.9 µM) |
| C=CC1=C(C(=O)O)N2C(=O)[C@@H](NC(=O)/C(=N\OCC(=O)O)c3csc(N)n3)[C@H]2SC1 [CEFIXIME] | – | – | – | – | – | – | – | – | 0.03 µg/mL (≈ 0.0662 µM) |
| CO/N=C(\C(=O)N[C@@H]1C(=O)N2C(C(=O)O)=C(CSc3nc(=O)c(O)nn3C)CS[C@H]12)c1csc(N)n1 [CEFTRIAXONE] | 0.008 µg/mL (≈ 0.0144 µM) | – | 0.06 µg/mL (≈ 0.108 µM) | 0.012 µg/mL (≈ 0.0216 µM) | 0.25 µg/mL | < 0.06 µg/mL | 0.008 µg/mL (≈ 0.0144 µM) | – | – |
| CO/N=C(\C(=O)N[C@@H]1C(=O)N2C(C(=O)O)=C(COC(N)=O)CS[C@H]12)c1ccco1 [CEFUROXIME] | – | – | – | – | – | – | – | – | 0.5 µg/mL (≈ 1.18 µM) |
| C[C@H]1COc2c(N3CCN(C)CC3)c(F)cc3c(=O)c(C(=O)O)cn1c23.C[C@H]1COc2c(N3CCN(C)CC3)c(F)cc3c(=O)c(C(=O)O)cn1c23.O [LEVOFLOXACIN] | < 0.06 µg/mL | – | 1 µg/mL | < 0.016 µg/mL | – | < 0.06 µg/mL | – | – | – |
| C[C@@H](O)[C@H]1C(=O)N2C(C(=O)O)=C(S[C@@H]3CN[C@H](C(=O)N(C)C)C3)[C@H](C)[C@H]12 [MEROPENEM] | 0.064 µg/mL (≈ 0.167 µM) | – | – | 0.125 µg/mL (≈ 0.326 µM) | 0.125 µg/mL | < 0.06 µg/mL | 0.064 µg/mL (≈ 0.167 µM) | – | – |

— ChEMBL document CHEMBL1154406, “Can the Etest correctly determine the MICs of beta-lactam and cephalosporin antibiotics for beta-lactamase-negative ampicillin-resistant Haemophilus influenzae?” (2007)
